Assay [1] addresses Beta-2 adrenergic receptor (Homo sapiens, UniProt P07550). The assay is classed as functional, cell-based.
In assay [2] the target is T1, Progesterone receptor (Homo sapiens, UniProt P06401).
T1 sequence (P06401 whole entry): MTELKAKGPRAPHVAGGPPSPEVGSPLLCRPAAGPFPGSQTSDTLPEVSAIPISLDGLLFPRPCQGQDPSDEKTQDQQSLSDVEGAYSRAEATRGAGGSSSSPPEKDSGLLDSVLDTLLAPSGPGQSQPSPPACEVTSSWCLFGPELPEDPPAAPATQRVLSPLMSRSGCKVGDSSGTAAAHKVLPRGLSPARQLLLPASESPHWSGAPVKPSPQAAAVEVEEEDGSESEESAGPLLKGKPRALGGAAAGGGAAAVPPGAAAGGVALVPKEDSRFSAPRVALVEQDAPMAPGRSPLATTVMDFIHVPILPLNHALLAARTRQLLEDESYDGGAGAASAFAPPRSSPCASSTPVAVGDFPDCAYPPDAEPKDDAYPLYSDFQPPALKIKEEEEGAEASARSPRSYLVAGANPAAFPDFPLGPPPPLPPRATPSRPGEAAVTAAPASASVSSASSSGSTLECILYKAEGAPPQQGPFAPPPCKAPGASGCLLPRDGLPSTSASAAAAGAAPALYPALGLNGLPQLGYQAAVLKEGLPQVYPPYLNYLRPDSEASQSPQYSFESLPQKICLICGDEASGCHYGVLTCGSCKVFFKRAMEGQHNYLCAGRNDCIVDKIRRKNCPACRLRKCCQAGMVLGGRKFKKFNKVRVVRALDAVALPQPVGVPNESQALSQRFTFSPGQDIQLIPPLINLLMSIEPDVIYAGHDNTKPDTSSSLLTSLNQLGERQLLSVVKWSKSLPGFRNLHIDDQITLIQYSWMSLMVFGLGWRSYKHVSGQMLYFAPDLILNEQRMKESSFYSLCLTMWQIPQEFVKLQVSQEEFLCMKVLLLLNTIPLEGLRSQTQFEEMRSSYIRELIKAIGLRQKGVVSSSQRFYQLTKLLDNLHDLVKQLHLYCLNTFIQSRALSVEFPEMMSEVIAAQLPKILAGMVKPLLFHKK
The assay is classed as functional.

Assay [3] concerns the target T2, Alpha-1A adrenergic receptor (Homo sapiens, UniProt P35348).
T2 sequence (P35348 whole entry): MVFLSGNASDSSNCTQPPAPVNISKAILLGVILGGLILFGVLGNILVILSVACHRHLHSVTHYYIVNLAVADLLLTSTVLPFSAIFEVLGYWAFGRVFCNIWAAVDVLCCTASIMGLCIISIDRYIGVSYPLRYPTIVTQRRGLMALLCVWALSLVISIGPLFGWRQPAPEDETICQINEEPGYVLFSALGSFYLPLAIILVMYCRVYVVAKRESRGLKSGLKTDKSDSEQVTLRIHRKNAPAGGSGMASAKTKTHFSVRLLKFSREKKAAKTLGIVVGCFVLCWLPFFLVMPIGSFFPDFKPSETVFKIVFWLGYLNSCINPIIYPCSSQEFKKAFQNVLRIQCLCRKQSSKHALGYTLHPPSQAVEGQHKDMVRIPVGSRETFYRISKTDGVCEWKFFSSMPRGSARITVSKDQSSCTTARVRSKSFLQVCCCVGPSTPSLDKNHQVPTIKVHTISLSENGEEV

Assay [4] deals with Beta-1 adrenergic receptor (Homo sapiens, UniProt P08588). The assay is classed as functional.
Assay [5] deals with T3, Neuropeptide Y receptor type 1 (Homo sapiens, UniProt P25929).
T3 sequence (P25929 whole entry): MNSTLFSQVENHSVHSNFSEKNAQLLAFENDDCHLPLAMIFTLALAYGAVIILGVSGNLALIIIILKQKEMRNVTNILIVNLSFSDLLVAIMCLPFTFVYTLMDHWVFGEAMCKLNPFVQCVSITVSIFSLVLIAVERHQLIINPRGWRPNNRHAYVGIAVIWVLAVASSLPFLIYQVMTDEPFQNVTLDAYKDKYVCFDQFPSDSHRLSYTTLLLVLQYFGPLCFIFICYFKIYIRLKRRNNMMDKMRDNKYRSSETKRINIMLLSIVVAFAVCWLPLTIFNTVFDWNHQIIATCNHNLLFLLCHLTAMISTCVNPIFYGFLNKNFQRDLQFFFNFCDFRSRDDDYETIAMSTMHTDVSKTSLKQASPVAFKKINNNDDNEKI

Assay [6] has as its target T4, B2 bradykinin receptor (Homo sapiens, UniProt P30411).
T4 sequence (P30411 whole entry): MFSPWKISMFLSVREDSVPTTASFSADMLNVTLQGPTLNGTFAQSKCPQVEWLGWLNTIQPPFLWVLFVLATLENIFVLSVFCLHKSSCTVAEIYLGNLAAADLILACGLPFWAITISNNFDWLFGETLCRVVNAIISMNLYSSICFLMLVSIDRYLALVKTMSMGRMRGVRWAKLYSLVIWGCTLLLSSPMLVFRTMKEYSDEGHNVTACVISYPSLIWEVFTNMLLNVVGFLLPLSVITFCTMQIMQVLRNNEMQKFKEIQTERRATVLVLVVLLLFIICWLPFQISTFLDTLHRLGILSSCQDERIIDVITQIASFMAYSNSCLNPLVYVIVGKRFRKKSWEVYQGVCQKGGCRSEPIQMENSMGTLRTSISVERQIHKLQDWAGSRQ

The target in assay [7] is T5, Estrogen receptor (Homo sapiens, UniProt P03372).
T5 sequence (P03372 whole entry): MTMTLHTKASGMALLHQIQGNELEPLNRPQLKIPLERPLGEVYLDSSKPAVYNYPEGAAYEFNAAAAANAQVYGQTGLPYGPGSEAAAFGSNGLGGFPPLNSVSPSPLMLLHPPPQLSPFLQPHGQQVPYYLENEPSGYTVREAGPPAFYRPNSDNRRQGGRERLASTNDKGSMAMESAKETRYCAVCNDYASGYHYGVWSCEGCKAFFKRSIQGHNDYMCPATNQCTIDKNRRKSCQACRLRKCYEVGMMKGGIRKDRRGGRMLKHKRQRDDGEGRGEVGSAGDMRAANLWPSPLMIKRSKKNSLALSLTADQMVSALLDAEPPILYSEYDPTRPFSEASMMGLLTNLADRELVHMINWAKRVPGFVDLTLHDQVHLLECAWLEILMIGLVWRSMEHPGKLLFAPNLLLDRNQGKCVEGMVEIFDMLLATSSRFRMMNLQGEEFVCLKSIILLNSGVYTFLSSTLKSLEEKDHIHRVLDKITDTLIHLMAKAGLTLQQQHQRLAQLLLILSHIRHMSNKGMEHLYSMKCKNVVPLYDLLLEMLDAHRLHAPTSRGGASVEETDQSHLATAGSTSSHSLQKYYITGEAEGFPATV

Six compounds from ChEMBL document CHEMBL5291721, “A preclinical secondary pharmacology resource illuminates target-adverse drug reaction associations of marketed drugs” (Nat Commun, 2023) can be followed below.

SMILES strings stand for the structures.
Note: assay procedure not described here.

Chain of Beta-1 adrenergic receptor (P08588 whole entry): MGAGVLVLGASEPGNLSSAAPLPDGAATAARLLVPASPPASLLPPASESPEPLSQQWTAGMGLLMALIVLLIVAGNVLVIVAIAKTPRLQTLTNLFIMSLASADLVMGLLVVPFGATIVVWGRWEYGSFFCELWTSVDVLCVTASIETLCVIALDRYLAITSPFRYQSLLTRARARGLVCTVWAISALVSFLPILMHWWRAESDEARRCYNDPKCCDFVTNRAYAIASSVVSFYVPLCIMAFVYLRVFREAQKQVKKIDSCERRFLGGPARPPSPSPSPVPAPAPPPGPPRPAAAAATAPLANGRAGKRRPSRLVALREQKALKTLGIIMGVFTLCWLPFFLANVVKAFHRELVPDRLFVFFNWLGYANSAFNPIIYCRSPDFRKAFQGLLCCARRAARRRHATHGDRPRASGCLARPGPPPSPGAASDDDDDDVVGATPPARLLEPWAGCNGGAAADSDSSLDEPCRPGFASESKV
Chain of Beta-2 adrenergic receptor (P07550 whole entry): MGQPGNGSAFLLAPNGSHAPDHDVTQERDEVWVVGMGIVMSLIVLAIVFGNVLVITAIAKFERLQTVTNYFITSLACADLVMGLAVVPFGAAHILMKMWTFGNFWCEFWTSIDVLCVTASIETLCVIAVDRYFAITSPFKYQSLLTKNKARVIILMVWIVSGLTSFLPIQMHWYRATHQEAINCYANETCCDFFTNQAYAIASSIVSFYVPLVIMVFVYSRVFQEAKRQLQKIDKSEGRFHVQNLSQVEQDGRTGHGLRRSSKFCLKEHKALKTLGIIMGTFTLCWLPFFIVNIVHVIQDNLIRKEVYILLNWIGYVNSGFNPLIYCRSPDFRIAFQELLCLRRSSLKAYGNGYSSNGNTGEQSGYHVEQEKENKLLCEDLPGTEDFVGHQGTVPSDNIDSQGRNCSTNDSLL

Consider `CN(C/C=C/c1ccccc1)Cc1cccc2ccccc12` [NAFTIFINE], for which the AC50 in assay [1] is greater than 30 µM; in assay [2], greater than 30 µM; in assay [3] it was 2.15 µM; in assay [4], greater than 30 µM; in assay [5] it was greater than 30 µM; in assay [6], greater than 30 µM. The AC50 in assay [7] is greater than 30 µM.
On to `CC(C)(N)Cc1ccc(Cl)cc1` [CHLORPHENTERMINE], for which the AC50 in assay [1] was greater than 30 µM; in assay [3] it was greater than 10 µM; in assay [4], greater than 10 µM; in assay [5] it was greater than 30 µM; in assay [6], greater than 30 µM; in assay [7], greater than 30 µM.
For the compound `NS(=O)(=O)c1cc(Cl)c(Cl)c(S(N)(=O)=O)c1` [DICHLORPHENAMIDE], the half-maximal activity concentration (AC50) in assay [1] is greater than 30 µM; in assay [2], greater than 10 µM; in assay [3], greater than 10 µM; in assay [4], greater than 10 µM; in assay [5], greater than 10 µM; in assay [6] it was greater than 10 µM.
Consider `C=C1C[C@@H]2[C@H](CC[C@]3(C)C(=O)CC[C@@H]23)[C@@]2(C)C=CC(=O)C=C12` [EXEMESTANE], for which the AC50 in assay [1] is greater than 30 µM; in assay [3] it was greater than 10 µM; in assay [4], greater than 10 µM; in assay [5], greater than 30 µM; in assay [6] it was greater than 30 µM; in assay [7], greater than 30 µM.
For `O=C(Nc1ccccc1)OCC(CN1CCCCC1)OC(=O)Nc1ccccc1` (configuration not stated) [DIPERODON], the AC50 in assay [1] is greater than 30 µM; in assay [3], greater than 10 µM; in assay [4], greater than 10 µM; in assay [5], greater than 30 µM; in assay [6] it was greater than 30 µM; in assay [7], greater than 30 µM.
For the compound `C[N+](C)(C)CCOC(N)=O` [CARBAMOYLCHOLINE], the AC50 is greater than 30 µM in assay [1]; greater than 10 µM in assay [2]; greater than 10 µM in assay [3]; greater than 10 µM in assay [4]; greater than 10 µM in assay [5]; greater than 10 µM in assay [6].

The term AC50 denotes the concentration giving half of the maximal activity seen. Lower therefore signals greater potency.
